Data taken from patent US12404259B2, “Inhibitors of extracellular signal-regulated kinase” (GEN1E LIFESCIENCES INC., priority 2023, dated 2025).
Read-outs that look alike come from different tables or passages of the source.

Columns and labels:
Format in all cases: cell-based
[1] = system: human pancreatic carcinoma cell line PL45; experiment: Cytotoxicity in cancer cell lines (CellTiter-Glo), PL45; conditions: PL45 cells, mean of three tests
From the text: (§1) All cells were obtained from ATCC. […] Normocin® was obtained from InvivoGen. FBS was obtained from Gibco. […] All test compounds were synthesized as described herein.

[2] = system: melanoma cell line A375; experiment: Cytotoxicity in cancer cell lines (CellTiter-Glo), A375; conditions: Homo sapiens, A-375, A375 cells, mean of three tests
From the text: as §1

[3] = system: glioblastoma cell line U87; experiment: Cytotoxicity in cancer cell lines (CellTiter-Glo), U87; conditions: Homo sapiens, U-87 MG, U87 cells, mean of three tests
From the text: as §1

[4] = system: immortalized human T lymphocyte Jurkat cells; experiment: Cytotoxicity in cancer cell lines (CellTiter-Glo), Jurkat; conditions: mean of three tests
From the text: as §1

[5] = system: melanoma cell line RPMI-7951; experiment: Cytotoxicity in cancer cell lines (CellTiter-Glo), RPMI-7951; conditions: Homo sapiens, RPMI-7951 cells, mean of three tests
From the text: as §1

[6] = 48 hours, read-out: Cytotoxicity EC50 at 48 hours, PL45
[7] = 48 hours, read-out: Cytotoxicity EC50 at 48 hours, A375

SMILES	EC50 [1, 6]	EC50 [2, 7]	EC50 ([3]; 48 hours, read-out: Cytotoxicity EC50 at 48 hours, U87)	EC50 ([3]; 72 hours, read-out: Cytotoxicity EC50 at 72 hours, U87)	EC50 ([1]; 72 hours, read-out: Cytotoxicity EC50 at 72 hours, PL45)	EC50 ([4]; 48 hours, read-out: Cytotoxicity EC50 at 48 hours, Jurkat)	EC50 ([4]; 72 hours, read-out: Cytotoxicity EC50 at 72 hours, Jurkat)	EC50 ([2]; 72 hours, read-out: Cytotoxicity EC50 at 72 hours, A375)	EC50 ([5]; 48 hours, read-out: Cytotoxicity EC50 at 48 hours, RPMI)	EC50 ([5]; 72 hours, read-out: Cytotoxicity EC50 at 72 hours, RPMI)
O=S1(=O)C=C[C@@H](OS(=O)(=O)c2ccc(Oc3ccccc3)cc2)C1 [Compound 1b, (R)-1,1-dioxido-2,3-dihydrothiophen-3-yl 4-phenoxybenzenesulfonate]	3000 nM	2500 nM								
O=S1(=O)C=CC(OS(=O)(=O)c2ccc(Oc3ccccc3)cc2)C1 (centres unmarked) [Compound 1, 1,1-dioxido-2,3-dihydrothiophen-3-yl 4-phenoxybenzenesulfonate]	2100 nM	2500 nM	1300 nM	900 nM	200 nM	400 nM	200 nM	13000 nM	600 nM	200 nM
O=S1(=O)C=C[C@H](OS(=O)(=O)c2ccc(Oc3ccccc3)cc2)C1 [Compound 1a, (S)-1,1-dioxido-2,3-dihydrothiophen-3-yl 4-phenoxybenzenesulfonate]	2100 nM	1300 nM								
